Columns and labels:
Influenza A/Texas/1/77 = experiment: Lethal intranasal virus infection of mice, single dose of active substance, survival; type: in vivo, Mäuse
Method: (§1) Gruppen von 30, 40 oder 50 weiblichen MF-2f SPF-Mäusen mit einem Körpergewicht von 14-16 g bzw. 12-14 g bei den Versuchen mit Herpes simplex 1 Viren werden unter leichter Narkose mit einem Gemisch aus gleichen Teilen Aether, Äthanol und Chloroform mit letalen Dosen (ungefähr eine LD80-90; Anzahl der plaque forming units [PFU] siehe Tabelle 1) der untengenannten Viren-Stämme in Form von je 0,05 ml einer Suspension der Viren intranasal infiziert.
(§2) 10 oder 20 von diesen Mäusen werden zum unten angegebenen Zeitpunkt [Tage] bezogen auf den Tag der Infektion einmal (Einzeldosis) die in Tabelle 1 genannten Mengen der Wirksubstanz N-Acetyl- muramyl-L-alanyl-D-isoglutaminyl-L-alanin-2-(1.2-dipalmitoyl-sn-glycero-3-hydroxyphosphoryioxy)-äthylamid-natriumsalz (Verbindung I) in 0,05 bzw. 0,1 ml Phosphat-gepufferter-Salzlösung (PBS) bzw. in 0,2 ml einer 0,05 Gew.-%igen Lösung von Natriumcarboxymethylcellulose in doppelt destilliertem Wasser im Falle von intranasaler, intravenöser bzw. oraler Applikation auf die in Tabelle 1 genannte Art appliziert.
(§3) Die restlichen der obengenannten Mäuse, d. h. 20 oder 30, dienen zur Kontrolle, d. h. sie bleiben entweder unbehandelt oder erhalten ein Placebo.
(§4) Die intranasale Applikation von Verbindung I wird unter leichter Narkose mit einem Gemisch aus gleichen Teilen Diäthyläther, Aethanol und Chloroform durchgeführt.

[1] = tested on: Herpesvirus hominis 1/TUP; experiment: Lethal intranasal virus infection of mice, single dose of active substance, protection; type: in vivo, Mäuse; conditions: 10 mg/kg, day -7, intranasal infection (Figur 3)
Method: as §1, §2, §3, §4

[2] = intranasal, 1 mg/kg, single dose on day '-' (number not given) before infection
[3] = oral, 10 mg, single dose on day +7 after infection

`CCCCCCCCCCCCCCCC(=O)OC[C@H](COP(=O)(O)OCCNC(=O)[C@H](C)NC(=O)CC[C@@H](NC(=O)[C@H](C)NC(=O)[C@@H](C)O[C@H]1[C@H](O)[C@@H](CO)OC(O)[C@@H]1NC(C)=O)C(N)=O)OC(=O)CCCCCCCCCCCCCCC` (stereo partly drawn) [Verbindung I, N-Acetyl-muramyl-L-alanyl-D-isoglutaminyl-L-alanin-2-(1,2-dipalmitoyl-sn-glycero-3-hydroxyphosphoryloxy)-äthylamid] was tested, and the “Mäuse die Infektion überleben” value (Influenza A/Texas/1/77; [2]) was 90% and the “Mäuse die Infektion überleben” value (Influenza A/Texas/1/77; [3]) was 65%.

With `CCCCOC(=O)[C@@H](CCC(N)=O)NC(=O)[C@H](C)NC(=O)[C@@H](C)O[C@H]1[C@H](O)[C@@H](CO)OC(O)[C@@H]1NC(C)=O` (stereo partly drawn) [Verbindung II, N-Acetyl-muramyl-L-alanyl-D-glutamin-n-butylester] the Schutzwirkung [1] was “Keinerlei Schutzwirkung”, the Schutzwirkung (Influenza A/Texas/1/77; [2]) was “keinerlei Schutzwirkung” and the “outcome of infection (death of mice)” value (Influenza A/Texas/1/77; [3]) was “sämtliche Mäuse an der Infektion mit Influenza A/Texas/1/77 sterben”.

Reference: EP0102319B1, “Prophylactic and therapeutic use of muramyl peptides and their analogues against viral infections” (CIBA-GEIGY AG, priority 1982, dated 1984)
